Measurements reported in patent publication US20220304957A1, “ANTI-CANCER COMPOSITIONS AND METHODS OF USE” (Board of Supervisors of Louisiana State University and …, priority 2019, published 2022).

Key:
[1] = Toxicity in mice: body weight and histopathology; format: in vivo, C57BL/6 mice; conditions: 14 days
Experimental: Panel A: PP1 accumulation in different tissues following oral administration of PP1 (25 mg/kg). C57BL/6 mice were treated daily for 14 days, and the levels of PP1 in the blood, liver, spleen, kidney, heart, brain and in brain tumors, were evaluated by HPLC, as previously described. Data represent average values with standard deviation (n=3). Panel B: Body weight of C57BL/6 mice treated with PP1. Mice were treated with the PP1 at doses ranging from 25 to 75 mg/kg/day administered by oral gavage. Following 7 and 14 days of daily drug administration both control (DMSO-treated) and experimental (PP1-treated) mice were weighted. Data represent average values with standard deviation (at least three mice per group were included). In Panels A and B, tumor free and tumor bearing mice were included for the body weight measurement. Panels C, D and E: Intracranial growth of GL-261-Luc cells. C57 black mice, 6-8 weeks of age were anesthetized with 4% isoflurane and secured in a stereotaxic head frame (Harvard Apparatus, Holliston Mass.). GL-261-luc cells (1×10^5 cells in 2 μl; PerkinElmer Inc.) were injected into the brain parenchyma (coordinates: 3 mm anterior to Bregma; 1.5 mm lateral to Sagital suture; 3 mm down from surface) through a burr hole in the skull using a 10 μl Hamilton syringe. Panel C: Mice with large intracranial tumors were selected using bioluminescence imaging with Xenogen IVIS 200 system. Tumor size is expressed as radiance (photons/s/cm2/sr) and was quantified with the Living Image 4.1 software according to the manufacturer's recommendations (Xenogen). Panels D and E: Pathological evaluation of intracranial tumors and tissues. Following 14 days of drug administration (control: DMSO administered daily by oral gavage; PP1 50 mg/kg administered daily by oral gavage) the animals were euthanized, and the following organs were collected: liver, kidneys, spleen, heart, intact brain and intracranial tumors. The tissues were formalin-fixed, paraffin-embedded, and the resulting thin section were stained with hematoxylin and eosin (H&E) for a routine pathological evaluation.
Animal studies—All described procedures involving experimental animals were performed in accordance to the IACUC protocol #3444 at LSUHSC, New Orleans. C57BL/6NHsd mice, 11-12 weeks of age (Envigo), were anesthetized with 4% isoflurane and secured in a stereotaxic head frame (Harvard Apparatus, Holliston Mass.). […] The resulting images were evaluated and luminescence measurements from equivalent regions of interest encompassing the entire skull were collected using Living Image 4.1 software (Xenogen). […]

[2] = test system: PPAR responsive elements (PPRE); assay: PPAR luciferase assay (PPRE reporter) in HepG2 cells; format: cell-based; conditions: 25 μM, 24 hrs
Experimental: Aliquots of 50 μM PP1 and FF in DMSO were added to 500 μl to heparinized human blood to a final concentration of 50 μM. Following incubation at 37° C. for the indicated time points, the samples were frozen at −80° C., and later prepared for HPLC-based detection of the compounds. Please note that FF is converted to FA in the presence of human blood. […] Data represent average values with standard deviation (n=3). panel B: Water solubility. FF and PP1, were added to water to a final concentration of 50 mM and sonicated in an ultrasonic bath (Branson 1510 Digital Heated Ultrasonic bath) for one hour at room temperature. The samples were then centrifuged for 10 minutes at 16000×g, and the supernatant filtered through 0.45 μm syringe filter. Water solubilized PP1 and FF were subsequently processed for HPLC analysis (see Methods). Data represent average values with standard deviation (n=3). panel C: Effects of PP compounds on PPAR responsive elements (PPRE). The PPAR transcriptional activity was determined in HepG2 cells by the JsTkpGL3 reporter plasmid, which contains a firefly luciferase gene driven by the PPRE, which consists of three copies of the J site from the apo-AII gene promoter. To normalize for efficiency of transfection the cells were additionally transfected with the pSV40-GLuc (New England Biolabs, Ipswich, Mass.) control plasmid. […] The luciferase activity was detected with Dual-Luciferase reporter assay system (Promega, Madison, Wis.), and the resulting luminescence measured with Synergy 2 microplate reader (BioTek, Winooski, Vt.). Data represent average values with standard deviation (n=6).
PPAR Luciferase Assay—The PPAR transcriptional activity was determined by utilizing the JsTkpGL3 reporter plasmid, which contains a firefly luciferase gene driven by the PPAR responsive element (PPRE), which consists of three copies of the J site from the apo-AII gene promoter. Together with JsTkpGL3 plasmid HepG2 cells were transfected with pSV40-GLuc (New England Biolabs, Ipswich, Mass.) control plasmid expressing Gaussia luciferase under the control of the constitutive SV40 early promoter to normalize for efficiency of transfection. […] The luciferase activity was detected with Dual-Luciferase reporter assay system (Promega, Madison, Wis.), and the resulting luminescence measured with Synergy 2 microplate reader (BioTek, Winooski, Vt.).

[3] = mouse, in vivo; cited from earlier work
[4] = test system: LN229 human glioblastoma cell line; assay: Cell viability (MTT assay), LN229; format: cell-based; conditions: MTT

## CN(CCO)C(=O)C(C)(C)Oc1ccc(C(=O)c2ccc(Cl)cc2)cc1 [PP1, 2-[4-(4-chlorobenzoyl)phenoxy]-N-(2-hydroxyethyl)-N,2-dimethylpropanamide]
[1]; 25-75 mg/kg/day oral gavage, tumor-free and tumor bearing mice
  overall toxicity and body weight: did not show any signs of overall toxicity and maintained their body weight
[1]; oral gavage daily
  histology, heart, kidney and intact brain: did not show any signs of pathology
  histology, liver: inflammation and focal necrotic areas in the liver
  histology, spleen: enlarged spleen with accumulation of hemosiderin
[2]
  effect on PPAR responsive elements (PPRE): attenuate
[3]
  brain penetration, concentration: 5 µM
  estimated log BB (from experiment): zero
[4]; 1 μM
  CV = Cell viability (% of control): 98.36±1.61 % of control
[4]; 5 μM
  CV = Cell viability (% of control): 70.03±2.04 % of control
[4]; 10 μM
  CV = Cell viability (% of control): 43.67±1.88 % of control
